Test results taken from ChEMBL document CHEMBL3621041, “Optimization of a Novel Binding Motif to (E)-3-(3,5-Difluoro-4-((1R,3R)-2-(2-fluoro-2-methylpropyl)-3-methyl-2,3,4,9-tetrahydro-1H-pyrido[3,4-b]indol-1-yl)phenyl)acrylic Acid (AZD9496), a Potent and Orally Bioavailable Selective Estrogen Receptor Downregulator and Antagonist” (J Med Chem, 2015).
≈ marks a conversion by molar mass, not a printed value. Calls of active or inactive are those of the source. The calls are words filed in the database; no cut-off is given here.

How the values were obtained:
[1] = Lipophilicity, log D of the compound at pH 7.4; assay type: physicochemical; details: buffer
[2] = Thermodynamic solubility of the compound in 0.1 M phosphate buffer at pH 7.4 after 24 hrs; assay type: physicochemical; details: read-out: Therm_solubility
[3] = Fraction unbound in Han Wistar rat 10% plasma by equilibrium dialysis; assay type: ADME, cell-free
[4] = Fraction unbound in human 10% plasma by equilibrium dialysis; assay type: ADME, cell-free
[5] = Intrinsic clearance in rat cryopreserved hepatocytes assessed per 10^6 cells; assay type: ADME, cell-based, Hepatocyte; details: read-out: CLH
[6] = Intrinsic clearance in human cryopreserved hepatocytes assessed per 10^6 cells; assay type: ADME, cell-based, Hepatocyte; details: read-out: CLH
[7] = target: T1, Androgen receptor (Homo sapiens, UniProt P10275); experiment: Binding affinity to androgen receptor (unknown origin); details: read-out: IC50
T1 sequence (P10275 whole entry): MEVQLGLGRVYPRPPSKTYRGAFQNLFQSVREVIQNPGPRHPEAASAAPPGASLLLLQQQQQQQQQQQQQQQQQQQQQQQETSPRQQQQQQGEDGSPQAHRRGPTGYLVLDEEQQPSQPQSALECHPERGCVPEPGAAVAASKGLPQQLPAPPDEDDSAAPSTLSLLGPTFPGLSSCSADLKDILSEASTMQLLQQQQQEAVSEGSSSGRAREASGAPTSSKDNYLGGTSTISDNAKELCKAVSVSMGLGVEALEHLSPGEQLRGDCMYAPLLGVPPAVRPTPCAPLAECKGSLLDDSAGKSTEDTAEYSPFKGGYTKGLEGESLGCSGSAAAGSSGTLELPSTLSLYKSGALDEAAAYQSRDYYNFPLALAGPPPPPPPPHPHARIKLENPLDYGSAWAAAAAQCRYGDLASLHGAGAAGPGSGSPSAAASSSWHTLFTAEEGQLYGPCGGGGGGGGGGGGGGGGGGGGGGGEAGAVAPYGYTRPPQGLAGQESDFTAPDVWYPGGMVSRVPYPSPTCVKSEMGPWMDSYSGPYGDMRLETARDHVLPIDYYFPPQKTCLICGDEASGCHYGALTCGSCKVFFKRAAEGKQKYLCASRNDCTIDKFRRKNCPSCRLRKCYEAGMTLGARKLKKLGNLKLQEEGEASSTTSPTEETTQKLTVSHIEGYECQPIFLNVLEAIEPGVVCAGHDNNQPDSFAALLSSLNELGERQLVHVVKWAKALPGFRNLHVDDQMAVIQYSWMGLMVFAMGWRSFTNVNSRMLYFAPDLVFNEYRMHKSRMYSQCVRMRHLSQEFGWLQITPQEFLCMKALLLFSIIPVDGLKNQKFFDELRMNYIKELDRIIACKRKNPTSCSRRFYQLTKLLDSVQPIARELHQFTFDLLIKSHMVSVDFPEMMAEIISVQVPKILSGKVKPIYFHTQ

[8] = target: T2, Glucocorticoid receptor (Homo sapiens, UniProt P04150); experiment: Binding affinity to glucocorticoid receptor (unknown origin); details: read-out: IC50
T2 sequence (P04150 whole entry): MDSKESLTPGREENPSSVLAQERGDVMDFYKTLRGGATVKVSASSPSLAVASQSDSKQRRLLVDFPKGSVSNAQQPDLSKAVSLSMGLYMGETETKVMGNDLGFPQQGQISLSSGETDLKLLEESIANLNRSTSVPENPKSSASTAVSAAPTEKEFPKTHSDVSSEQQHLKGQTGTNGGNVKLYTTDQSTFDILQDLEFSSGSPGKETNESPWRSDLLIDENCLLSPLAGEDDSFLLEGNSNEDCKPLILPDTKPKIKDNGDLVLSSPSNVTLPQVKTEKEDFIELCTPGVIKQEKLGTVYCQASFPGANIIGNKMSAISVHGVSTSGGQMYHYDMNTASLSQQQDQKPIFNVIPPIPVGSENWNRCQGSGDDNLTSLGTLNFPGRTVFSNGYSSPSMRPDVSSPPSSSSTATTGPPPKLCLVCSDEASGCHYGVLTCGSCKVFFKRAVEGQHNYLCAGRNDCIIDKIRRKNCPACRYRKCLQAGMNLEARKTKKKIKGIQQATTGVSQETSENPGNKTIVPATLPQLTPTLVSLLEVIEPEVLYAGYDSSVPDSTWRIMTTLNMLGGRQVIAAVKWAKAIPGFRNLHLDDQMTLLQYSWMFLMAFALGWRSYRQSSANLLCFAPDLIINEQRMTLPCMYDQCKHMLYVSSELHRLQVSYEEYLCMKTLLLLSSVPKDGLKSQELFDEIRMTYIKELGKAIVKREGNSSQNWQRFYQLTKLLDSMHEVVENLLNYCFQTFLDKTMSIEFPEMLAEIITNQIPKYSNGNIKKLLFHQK

[9] = Volume of distribution at steady state in Alderley Park beagle dog at 2.5 umol/kg, iv and 5 umol/kg, po; assay type: ADME, organism-based, Canis lupus familiaris; details: in vivo, read-out: Vdss
[10] = Clearance in Alderley Park beagle dog at 2.5 umol/kg, iv and 5 umol/kg, po; assay type: ADME, organism-based, Canis lupus familiaris; details: in vivo
[11] = Oral bioavailability in Alderley Park beagle dog at 5 umol/kg; assay type: ADME, organism-based, Canis lupus familiaris; details: in vivo
[12] = Volume of distribution at steady state in Han Wistar rat at 2.2 umol/kg, iv and 4.5 umol/kg, po; assay type: ADME, organism-based; details: in vivo, read-out: Vdss
[13] = Clearance in Han Wistar rat at 2.2 umol/kg, iv and […] umol/kg, po; assay type: ADME, organism-based; details: in vivo
[14] = Oral bioavailability in Han Wistar rat at 4.5 umol/kg; assay type: ADME, organism-based; details: in vivo
[15] = Volume of distribution at steady state in SCID mouse at 2.3 umol/kg, iv and 5.6 umol/kg, po; assay type: ADME, organism-based; details: in vivo, read-out: Vdss
[16] = Clearance in SCID mouse at 2.3 umol/kg, iv and 5.6 umol/kg, po; assay type: ADME, organism-based; details: in vivo
[17] = Oral bioavailability in SCID mouse at 5.6 umol/kg; assay type: ADME, organism-based; details: in vivo
[18] = system: MCF7; experiment: Antitumor activity against human MCF7 cells xenografted in mouse assessed as tumor growth inhibition administered orally daily once; assay type: functional
[19] = system: MCF7; experiment: Antitumor activity against human MCF7 cells xenografted in mouse assessed as tumor regression at 5 mg/kg, po qd; assay type: functional, organism-based
[20] = system: MCF7; experiment: cells; details: Homo sapiens, MCF7, read-out: pIC50 (converted)
Description: Antiproliferative activity against human MCF7 cells

[21] = target: T3, Progesterone receptor (Homo sapiens, UniProt P06401); experiment: Agonist activity at progesterone receptor in human MCF7 cells; assay type: cell-based
T3 sequence (P06401 whole entry): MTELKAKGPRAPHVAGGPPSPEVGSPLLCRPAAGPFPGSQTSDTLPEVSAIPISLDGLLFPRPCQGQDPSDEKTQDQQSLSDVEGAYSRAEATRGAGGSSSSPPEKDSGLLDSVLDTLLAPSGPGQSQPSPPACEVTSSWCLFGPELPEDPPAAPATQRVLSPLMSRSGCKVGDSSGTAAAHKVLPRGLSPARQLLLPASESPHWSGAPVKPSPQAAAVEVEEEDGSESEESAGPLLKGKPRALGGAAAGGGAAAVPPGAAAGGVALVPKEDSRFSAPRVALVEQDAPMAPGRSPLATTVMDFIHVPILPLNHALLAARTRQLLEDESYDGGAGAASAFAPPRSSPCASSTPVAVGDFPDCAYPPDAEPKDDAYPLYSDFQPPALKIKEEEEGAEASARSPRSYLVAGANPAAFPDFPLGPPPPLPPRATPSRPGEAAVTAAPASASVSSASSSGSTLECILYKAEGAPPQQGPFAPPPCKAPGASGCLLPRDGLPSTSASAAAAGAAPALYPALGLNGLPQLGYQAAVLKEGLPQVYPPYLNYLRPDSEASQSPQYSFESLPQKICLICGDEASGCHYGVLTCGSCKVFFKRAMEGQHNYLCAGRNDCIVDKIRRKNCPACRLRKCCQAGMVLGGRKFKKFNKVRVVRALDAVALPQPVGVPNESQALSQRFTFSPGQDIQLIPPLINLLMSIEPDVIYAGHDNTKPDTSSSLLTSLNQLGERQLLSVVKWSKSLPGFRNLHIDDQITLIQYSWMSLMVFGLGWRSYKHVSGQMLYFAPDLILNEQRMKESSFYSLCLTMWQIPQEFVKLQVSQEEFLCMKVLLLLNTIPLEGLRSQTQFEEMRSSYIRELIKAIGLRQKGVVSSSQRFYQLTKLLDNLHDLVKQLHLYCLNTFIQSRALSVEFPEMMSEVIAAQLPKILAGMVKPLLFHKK

[22] = Volume of distribution at steady state in Han Wistar rat at 5 umol/kg, iv and 13 umol/kg, po; assay type: ADME, organism-based; details: in vivo, read-out: Vdss
[23] = Clearance in Han Wistar rat at 5 umol/kg, iv and 13 umol/kg, po; assay type: ADME, organism-based; details: in vivo
[24] = Oral bioavailability in Han Wistar rat at 13 umol/kg; assay type: ADME, organism-based; details: in vivo
[25] = Volume of distribution at steady state in CD1 mouse at 5 umol/kg, iv and 13 umol/kg, po; assay type: ADME, organism-based; details: in vivo, read-out: Vdss
[26] = Clearance in CD1 mouse at 5 umol/kg, iv and 13 umol/kg, po; assay type: ADME, organism-based; details: in vivo
[27] = Oral bioavailability in CD1 mouse at 13 umol/kg; assay type: ADME, organism-based; details: in vivo
[28] = target: T4, Estrogen receptor (Homo sapiens, UniProt P03372)
T4 sequence (P03372 whole entry): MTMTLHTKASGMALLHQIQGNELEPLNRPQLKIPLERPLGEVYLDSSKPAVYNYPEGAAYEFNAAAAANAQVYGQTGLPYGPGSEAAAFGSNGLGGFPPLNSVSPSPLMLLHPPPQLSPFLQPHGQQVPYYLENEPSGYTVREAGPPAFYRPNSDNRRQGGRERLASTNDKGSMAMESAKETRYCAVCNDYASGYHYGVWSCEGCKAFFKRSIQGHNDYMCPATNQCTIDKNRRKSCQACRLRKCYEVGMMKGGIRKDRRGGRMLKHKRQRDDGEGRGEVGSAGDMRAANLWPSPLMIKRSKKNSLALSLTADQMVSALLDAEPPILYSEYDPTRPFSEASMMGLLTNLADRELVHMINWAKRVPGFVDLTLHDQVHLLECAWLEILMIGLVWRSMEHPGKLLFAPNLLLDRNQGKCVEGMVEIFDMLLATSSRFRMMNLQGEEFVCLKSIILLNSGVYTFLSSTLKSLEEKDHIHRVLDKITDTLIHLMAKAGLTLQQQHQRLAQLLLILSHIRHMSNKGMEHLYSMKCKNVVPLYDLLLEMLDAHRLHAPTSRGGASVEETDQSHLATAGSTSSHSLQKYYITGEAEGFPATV
Description: Binding affinity to ERalpha receptor (unknown origin)

[29] = target: T4, Estrogen receptor; remark: listed apart in the source
Description: Antagonist activity at ERalpha receptor in human MCF7 cells

Compound	logD [1]	solubility thermodynamic at 24 h [2]	fraction unbound [3]	fraction unbound [4]	hepatocyte CLint [5]	hepatocyte CLint [6]	Vd [9]	clearance [10]	bioavailability [11]	IC50 [20]	further results
C[C@@H]1Cc2c([nH]c3ccccc23)[C@@H](c2c(F)cc(/C=C/C(=O)O)cc2F)N1CC(C)(C)F [AZD-9496]	2.8	110 µM (≈ 48.7 µg/mL)	0.0037	0.0026	4.2 µL/min/1e6 cells	32 µL/min/1e6 cells	2.2 L/kg	0.28 mL/min/kg	79%	0.0398 nM	IC50 [7]: 30000 nM; IC50 [8]: 9200 nM; Vd [12]: 0.43 L/kg; clearance [13]: 1 mL/min/kg; bioavailability [14]: 63%; Vd [15]: 2.2 L/kg; clearance [16]: 43 mL/min/kg; bioavailability [17]: 128%; growth inhibition (GI) [18]: Dose-dependent effect; Activity [19]: Active
CC(C)CN1[C@H](c2ccc(/C=C/C(=O)O)cc2)c2[nH]c3ccccc3c2C[C@H]1C	2.6	> 1000 µM	0.0069	0.0051	18 µL/min/1e6 cells	40 µL/min/1e6 cells	0.3 L/kg	0.96 mL/min/kg	111%	0.776 nM	IC50 [21]: > 100000 nM; Vd [22]: 1.1 L/kg; clearance [23]: 6.2 mL/min/kg; bioavailability [24]: 80%; Vd [25]: 3.7 L/kg; clearance [26]: 21 mL/min/kg; bioavailability [27]: 86%; IC50 [28]: 6.46 nM; IC50 [29]: 2.09 nM
